Measurements taken from patent US5200429A, “Acne vulgaris treating” (Takasago International Corporation, priority 1990, dated 1993).
Converted amounts (≈) assume the structure as drawn. Read-outs that look alike come from different tables or passages of the source.

Assays:
Escherichia coli [1] = settings: Indian Perfumer, 28(2), 82-87 (1984); cited from earlier work
[2] = test system: Propionibacterium acnes (ATCC 11827); test: Minimum inhibitory concentration (MIC) against Propionibacterium acnes (Test Example 1); type: cell-based
Method: The minimum inhibitory concentration (MIC) of caryophyllene, cedrene, longifolene, and thujopsene obtained in Preparation Example against Propionibacterium acnes (ATCC 11827) was determined as follows.
The test compound was added to a 4.6% ABCM bouillon aqueous solution (prepared by dissolving 46 g of an ABCM bouillon medium produced by Eiken Kagaku K. K. in 1 l of distilled water) in a concentration of 100 μg/ml, and the solution was stepwise diluted two times with the same medium, followed by sterilization.
A 5 ml aliquot of the solution was put in a test tube and inoculated with 0.1 ml of the culture of Propionibacterium acnes which had been preliminarily cultured so as to have a cell density of 5×10^8 cells/ml. The system was static-cultured under anaerobic conditions at 37° C. for 48 hours, and the turbidity of the cultured system was measured at a wavelength of 600 nm to obtain MIC (μg/ml).

several fungi = settings: Indian Perfumer, 28(2), 82-87 (1984); cited from earlier work
Bacillus subtilis = settings: J. Antibact. Antifung. Agents, 8(1), 3-6 (1980); cited from earlier work
various molds = settings: J. Antibact. Antifung. Agents, 8(1), 3-6 (1980); cited from earlier work
Pseudomonas aeruginosa = settings: J. Antibact. Antifung. Agents, 8(1), 3-6 (1980); cited from earlier work
Escherichia coli [3] = settings: J. Antibact. Antifung. Agents, 8(1), 3-6 (1980); cited from earlier work
skin = settings: conventional use in acne vulgaris; cited from earlier work
[4] = Cutibacterium acnes, ATCC11827, anaerobic, 37° C., 48 hours, turbidity at 600 nm, read-out: MIC

Question: With `C=CCc1ccc(O)c(OC)c1` [Eugenol, reference compound] as the molecule, how does the antimicrobial activity (Escherichia coli [1]) read?
Answer: strong antimicrobial activity

Question: And the MIC [2, 4]?
Answer: 50 mg/L (≈ 304 µM)

Question: What about the antimicrobial activity (several fungi) of the same molecule?
Answer: strong antimicrobial activity

Question: Which antimicrobial activity (Bacillus subtilis) does the source give for `CC1=CC[C@]2(C)CCCC(C)(C)[C@@]23C[C@@H]13` [Thujopsene] here?
Answer: any substantial antimicrobial activity on various molds, Bacillus subtilis, Escherichia coli, and Pseudomonas aeruginosa was not exhibited

Question: And the MIC [2, 4]?
Answer: 6.25 mg/L (≈ 30.6 µM)

Question: What about the antimicrobial activity (various molds) of the same molecule?
Answer: any substantial antimicrobial activity on various molds, Bacillus subtilis, Escherichia coli, and Pseudomonas aeruginosa was not exhibited

Question: And the antimicrobial activity (Pseudomonas aeruginosa)?
Answer: any substantial antimicrobial activity on various molds, Bacillus subtilis, Escherichia coli, and Pseudomonas aeruginosa was not exhibited

Question: What about the antimicrobial activity (Escherichia coli [3]) of the same molecule?
Answer: any substantial antimicrobial activity on various molds, Bacillus subtilis, Escherichia coli, and Pseudomonas aeruginosa was not exhibited

Question: For `[H]/N=C(\N/C(=N/[H])NCCCCCCNC(=N)NC(=N)Nc1ccc(Cl)cc1)Nc1ccc(Cl)cc1` [Chlorhexidine Gluconate], which side effects (skin) is on record?
Answer: side effects of causing erythema or exfoliation, causing extreme skin roughening and skin irritation

Question: With `C=C1CC/C=C(/C)CC[C@@H]2[C@@H]1CC2(C)C` [Caryophyllene] as the molecule, how does the antimicrobial activity (Escherichia coli [1]) read?
Answer: no activity

Question: What about the MIC ([2]; Cutibacterium acnes, ATCC11827, 48 h) of the same molecule?
Answer: 3.13 mg/L (≈ 15.3 µM)

Question: And the antimicrobial activity (several fungi)?
Answer: no activity

Question: Which MIC [2, 4] does the source give for `C=C1[C@H]2CC[C@@H]3[C@H]2C(C)(C)CCC[C@]13C` [Longifolene] here?
Answer: 1.57 mg/L (≈ 7.68 µM)

Question: Which MIC ([2]; anaerobic, 37° C., 48 hours, turbidity at 600 nm) does the source give for Cedrene here?
Answer: 1.57 mg/L
